The record followed here is paper PMC9909341, “TLQP-21 is a low potency partial C3aR activator on human primary macrophages” (Frontiers in Immunology, 2023).

Assay [1] concerns CHO-K1 cells (endogenous C3aR). As to the kind of experiment: phospho-ERK1/2 assay in non-transfected CHO-K1 cells. The class given is cell-based, Chinese hamster. How it is done:
(§1) Cell lines for this study were cultured as previously described ([20]). Non-transfected CHO-K1 cells or CHO cells stably expressing the human C3aR (CHO-C3aR; Product # ES-730-C, PerkinElmer, Melbourne, Australia) were maintained in Ham’s F12 medium containing 10% foetal bovine serum (FBS), 100 IU/ml penicillin and 100 μg/ml streptomycin, with additional 400 μg/ml G418 (In vivoGen, San Diego, USA) added for CHO-C3aR cell culture. HEK293 cells were maintained in DMEM medium containing 10% FBS, 100 IU/ml penicillin and 100 μg/ml streptomycin. All cell lines were maintained in T175 flasks (37°C, 5% CO2) and subcultured at 80-90% confluency using 0.05% trypsin-EDTA in DPBS.
Ligand-induced ERK1/2 phosphorylation was assessed using the AlphaLISA Surefire Ultra p-ERK1/2 (Thr202/Tyr204) kit (PerkinElmer, Melbourne, Australia) following the manufacturer’s protocol as previously described ([18], [20], [22]). Briefly, CHO-K1, CHO-C3aR, CHO-C5aR1, HMDMs (50,000/well) or BMDMs (90,000/well) were seeded in tissue culture-treated 96-well plates (Corning, Corning, USA) for 24 h and serum-starved overnight. […] On a Tecan Spark 20M (Tecan, Männedorf, Switzerland), the plate was measured using standard AlphaLISA settings.
All experiments were conducted in triplicates and repeated on three separate occasions unless otherwise specified. Data was analysed using GraphPad software (Prism 9.1). Data from each individual repeat was normalised accordingly (as specified in the figure legends) before being combined and expressed as mean ± standard error of the mean (S.E.M.) unless otherwise described. For all dose-response studies, logarithmic concentration-response curves were plotted using combined data and analysed to determine the respective potency values. […]
Figure 1 hTLQP-2 and mTLQP-21 activate ERK signalling in CHO-K1 and CHO-C3aR cells. hTLQP-21, mTLQP-21 and plasma-derived human C3a were tested in (A) non-transfected CHO-K1 or (B) CHO cells stably expressing human C3aR. […] The phospho-ERK1/2 content in the lysate was measured and expressed as fold-baseline before being combined. […]

A further assay deals with T1, human C3aR (Homo sapiens, UniProt Q16581).
T1 sequence (Q16581 1-482): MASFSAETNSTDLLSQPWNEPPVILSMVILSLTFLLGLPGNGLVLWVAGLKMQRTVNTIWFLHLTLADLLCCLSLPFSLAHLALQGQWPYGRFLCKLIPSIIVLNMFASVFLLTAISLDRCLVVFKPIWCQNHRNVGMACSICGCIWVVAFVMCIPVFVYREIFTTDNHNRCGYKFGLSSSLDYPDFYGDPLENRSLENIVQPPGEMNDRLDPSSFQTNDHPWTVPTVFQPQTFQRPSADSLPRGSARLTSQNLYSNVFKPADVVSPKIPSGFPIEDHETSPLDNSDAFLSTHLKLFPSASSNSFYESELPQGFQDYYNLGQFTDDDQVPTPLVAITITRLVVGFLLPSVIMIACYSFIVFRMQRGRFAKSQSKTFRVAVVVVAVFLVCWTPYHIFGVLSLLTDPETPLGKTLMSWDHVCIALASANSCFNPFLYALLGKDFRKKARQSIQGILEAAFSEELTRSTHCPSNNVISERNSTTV
The assay is described as follows: phospho-ERK1/2 assay in CHO-C3aR cells. The format is cell-based. As to conditions: n = 3-4; for EC50: CHO cells stably expressing human C3aR, serum-starved, AlphaLISA p-ERK1/2, combined data, read-out: EC50 (pERK1/2), CHO-C3aR. As to the method:
as §1
(§2) Ligand-induced ERK1/2 phosphorylation was assessed using the AlphaLISA Surefire Ultra p-ERK1/2 (Thr202/Tyr204) kit (PerkinElmer, Melbourne, Australia) following the manufacturer’s protocol as previously described ([18], [20], [22]). Briefly, CHO-K1, CHO-C3aR, CHO-C5aR1, HMDMs (50,000/well) or BMDMs (90,000/well) were seeded in tissue culture-treated 96-well plates (Corning, Corning, USA) for 24 h and serum-starved overnight. All ligand dilutions were prepared in serum-free medium (SFM) containing 0.1% BSA. For inhibition assays, cells were pre-treated with the following ligands (5 µM SB290157, or respective concentrations of hC3a, mC3a, hC5a, hTLQP-21, and mTLQP-21) or the solvent-only control for 30 min before agonist (hC3a, hTLQP-21 and mTLQP-21) addition. The concentration and identity of the ligands are described in detail in the figure legends. For stimulation, cells were treated with ligands at the indicated concentrations for 10 min at RT and then immediately lysed using AlphaLISA lysis buffer on a microplate shaker (450 rpm, 10 min). For the detection of phospho-ERK1/2 content, cell lysate (5 μL/well) was transferred to a 384-well ProxiPlate (PerkinElmer, Melbourne, Australia) and added to the donor and acceptor reaction mix (2.5 μL/well, respectively), followed by a 2-h incubation at RT in the dark. On a Tecan Spark 20M (Tecan, Männedorf, Switzerland), the plate was measured using standard AlphaLISA settings.
(§3) All experiments were conducted in triplicates and repeated on three separate occasions unless otherwise specified. Data was analysed using GraphPad software (Prism 9.1). Data from each individual repeat was normalised accordingly (as specified in the figure legends) before being combined and expressed as mean ± standard error of the mean (S.E.M.) unless otherwise described. For all dose-response studies, logarithmic concentration-response curves were plotted using combined data and analysed to determine the respective potency values. Statistical analysis was performed using two-way ANOVA with Dunnett’s post hoc analysis. Donor-matched comparisons were made for HMDM experiments. Differences were deemed significant when p < 0.05.
Figure 1 hTLQP-2 and mTLQP-21 activate ERK signalling in CHO-K1 and CHO-C3aR cells. hTLQP-21, mTLQP-21 and plasma-derived human C3a were tested in (A) non-transfected CHO-K1 or (B) CHO cells stably expressing human C3aR. CHO cells were serum-starved overnight and then stimulated with various ligands for 10 min before being lysed. The phospho-ERK1/2 content in the lysate was measured and expressed as fold-baseline before being combined. The maximum relative pERK1/2 activity induced by each ligand is shown in (C). Data represent mean ± S.E.M. of triplicate measurements from 3-4 independent experiments (n = 3-4). Two-way ANOVA with Dunnett’s post hoc analysis. *P < 0.05, ***P < 0.001, ****P < 0.0001. Ligand treated versus medium treated cells for each cell line.

In assay [2] the test system is HMDM (endogenous human C3aR). The class given is cell-based. As to conditions: for EC50: primary human macrophages, 50,000/well, AlphaLISA p-ERK1/2, n = 4 donors, read-out: EC50 (pERK1/2), HMDM.
From the text: HMDMs were generated and cultured as previously described ([20]), with experiments approved by The University of Queensland Human Research Ethics Committee. Briefly, human buffy coat blood from anonymous healthy donors was obtained through the Australian Red Cross Blood Service (Brisbane, Australia). Human CD14+ monocytes were isolated from blood using Lymphoprep density centrifugation (STEMCELL, Melbourne, Australia) followed by CD14+ MACS magnetic bead separation (Miltenyi Biotec, Sydney, Australia). The isolated monocytes were differentiated for 7 days in Iscove’s Modified Dulbecco’s Medium supplemented with 10% FBS, 100 IU/ml penicillin, 100 μg/ml streptomycin and 15 ng/ml recombinant human macrophage colony stimulating factor (BioLegend, San Diego, USA) on 10 mm square dishes (Bio-strategy, Brisbane, Australia). Non-adherent cells were removed by washing with DPBS, and the adherent differentiated HMDMs were harvested by gentle scraping.
as §2, §3
Figure 3 Agonistic and antagonistic activities of hTLQP-21 and mTLQP-21 in human monocyte-derived macrophages. Serum-starved HMDMs (50,000/well) were (A) stimulated with medium or respective ligands at the indicated concentrations for 10 min and then lysed, or (B) pre-treated with 5 µM SB290157 for 30 min prior to stimulation. (C) HMDMs were pre-treated with 10 μM hTLQP-21 or mTLQP-21 for 30 min before being stimulated with respective concentrations of human C3a. (D) HMDMs were pre-treated with 10 nM hC3a, 10 μM hTLQP-21 or mTLQP-21 for 30 min before being stimulated with the same concentrations of the above ligands for 10 min and then lysed. (E) HMDMs were pre-treated with 10 μM hTLQP-21 or mTLQP-21 for 30 min before being stimulated with respective concentrations of human C5a for 10 min and then lysed. […]

Consider “hC3a: purified (plasma-derived) human C3a, purchased from Merck”, for which the “ERK1/2 phosphorylation, CHO-K1” value in assay [1] (10 min stimulation at RT, n = 3-4) is “significantly triggered ERK1/2 phosphorylation in CHO-K1 cells”. Besides, the EC50 with human C3aR (10 min stimulation at RT) turned out to be 0.15 nM; in assay [2] (10 min stimulation at RT), 0.11 nM.

Turning to “C3a: Table 1 label: human C3a in CHO-C3aR and HMDM, recombinant mouse C3a in BMDM”, the “maximum relative pERK1/2 activity, CHO-K1” value in assay [1] (10 min, Figure 1C, n = 3-4) was 2.7 fold baseline. Also, the “relative efficacy of ERK signalling in CHO-K1 versus CHO-C3aR” value in assay [1] (fold lower than in CHO-C3aR cells) is given as 2.6 fold. The “maximum relative pERK1/2 activity, CHO-C3aR” value with human C3aR (10 min, Figure 1C) worked out at 7.3 fold baseline. Besides, the EC50 with human C3aR (10 min stimulation at RT) amounted to 0.15 nM; in assay [2] (10 min stimulation at RT) it was 0.11 nM. The “logEC50 ± SE (pERK1/2), CHO-C3aR” value with human C3aR (CHO-C3aR, 10 min stimulation at RT) is recorded as -9.8 ± 0.1. Also, in the assay with human C3aR (efficacy relative to hC3a, fold baseline normalised), the “% C3a activity ± SE, CHO-C3aR” value is 100 ± 2.8%. Further, the “logEC50 ± SE (pERK1/2), HMDM” value in assay [2] (HMDM, 10 min stimulation at RT, n = 3-4) is reported as -9.9 ± 0.1. In assay [2] (relative to hC3a, n = 3-4), the “% C3a activity ± SE, HMDM” value amounted to 100 ± 6.2%.
